Reference: patent US20240368090A1, “SOLID STATE FORMS OF D[…] PROCESS FOR THEIR PREPARATION” (REDDY’S LABORATORIES LIMITED, priority 2023, published 2024)

Assay: physical and chemical stability under standard stability conditions
Assay type: physicochemical
Description: In another aspect of the present disclosure, the crystalline form DP-9 of Daprodustat which is physically & chemically stable under standard stability conditions like 25° C.-60% RH, 40° C.-75% RH and 2-8° C. for at least 3 months.

Measured: physically & chemically stable for at least

O=C(O)CNC(=O)C1C(=O)N(C2CCCCC2)C(=O)N(C2CCCCC2)C1=O [Form DP-9]
at least 3 months: 2-8° C. | 25° C.-60% RH | 40° C.-75% RH
